These are literature values, as cited in patent publication US20120087859A1, “NANOCARRIER HAVING ENHANCED SKIN PERMEABILITY, CELLULAR UPTAKE AND TUMOUR DELIVERY PROPERTIES” (GWANGJU INSTITUTE OF SCIENCE AND TECHNOLOGY, priority 2010, published 2012).

For the data set, the system named is NIH/3T3 fibroblasts. Conditions: cultured NIH/3T3 fibroblasts in vitro.

For `CC(C)(O)C(=O)c1ccc(OCCO)cc1` [Irgacure 2959, 2-hydroxy-1-[4-(2-hydroxyethoxy)phenyl]-2-methyl-1-propanone], the cytotoxicity entry was “almost non-cytotoxic”.
